One assay addresses T1, human PPARα (Homo sapiens, UniProt Q07869).
T1 construct: expressed in transfected cells; host or cells: RK13 or COS-7
T1 sequence (Q07869 239-466 limits assumed): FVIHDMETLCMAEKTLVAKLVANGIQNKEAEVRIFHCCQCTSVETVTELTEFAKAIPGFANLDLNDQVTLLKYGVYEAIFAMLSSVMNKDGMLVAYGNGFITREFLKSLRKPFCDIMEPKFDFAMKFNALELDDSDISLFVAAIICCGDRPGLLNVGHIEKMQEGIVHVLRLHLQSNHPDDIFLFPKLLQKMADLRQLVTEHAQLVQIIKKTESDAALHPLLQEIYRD
In words: PPARα/Gal4 transactivation system. Conditions: PPAR/Gal4 transactivation system. Format: cell-based. Here is the method:
(§1) PPAR activation was tested in vitro in RK13 or COS-7 fibroblast cell lines by measuring the transcriptional activity of chimeras composed of the DNA binding domain of the yeast Gal4 transcription factor and the ligand binding domain of the different PPARs. These latter results were then confirmed in cell lines according to the following protocols.
(§2) Culture protocols: RK13 were from ECACC (Porton Down, UK) and were grown in DMEM medium supplemented with 10% (V/V) fetal calf serum, 100 U/ml penicillin (Gibco, Paisley, UK) and 2 mM L-glutamine (Gibco, Paisley, UK). COS-7 cells were from ATCC and were grown in DMEM medium supplemented with 10% (V/V) fetal calf serum, 1% penicillin/streptomycine (Biochrom, AG), 1% of amino acids (Gibco) and 1% sodium pyruvate (Gibco).
(§3) The culture medium was changed every two days. Cells were kept at 37° C. in a humidified 95% air/5% CO2 atmosphere.
(§4) Description of plasmids used for transfection: The plasmids Gal4(RE)_TkpGL3, pGal4-hPPARα, pGal4-hPPARγ, pGal4-hPPARδ and pGal4-φ have been described in the literature (Raspe E et al., 1999). The pGal4-hPPARα, pGal4-hPPARγ and pGal4-hPPARδ constructs were obtained by cloning into the pGal4-φ vector PCR-amplified DNA fragments corresponding to the DEF domains of the human PPARs nuclear receptors.
(§5) Transfection of RK13: RK13 cells were seeded in 24-well culture dishes at 5×10^4 cells/well and transfected for 2 hours with the reporter plasmid Gal4(RE)_TkpGL3 (50 ng/well), the expression vectors pGal4-φ, pGal4-hPPARα, pGal4-hPPARγ and pGal-hPPARδ (100 ng/well) and the transfection efficiency control vector pRL-CMV (1 ng/well) according to the previously described protocol (Raspe E, Madsen L, Lefebvre A M, Leitersdorf I, Gelman L, Peinado-Onsurbe J, Dallongeville J, Fruchart J C, Berge R and Staels B, 1999), then incubated for 36 hours with the test compounds. RK13 cells were incubated with the different compounds at concentrations of 10, 30 and 100 μM or 1, 10 and 100 μM for 24 hours. At the end of the experiment, the cells were lysed (Gibco, Paisley, UK) and luciferase activity was determined with a Dual-Luciferase™ Reporter Assay System kit (Promega, Madison, Wis., USA) according to the supplier's instructions. The protein content of the cell extracts was then measured with the Bio-Rad Protein Assay (Bio-Rad, Munich, Germany) as directed by the supplier.
(§6) Transfection of COS7: Cells in suspension are transfected, in the presence of 10% (V/V) fetal calf serum, with 150 ng of DNA per well with a pGal4-PPAR/Gal4(RE)_TkpGL3 ratio of 1/10. Cells are then seeded in 96 well plates (4×10^4 cells/well) and incubated for 24 hours at 37° C. Activation with compounds is performed on 24 hours at 37° C. in culture medium without serum. At the end of the activation period, cells are lysed and luciferase activity is determined, using the Steady Glow Luciferase Kit (Promega), according to the supplier's instructions.

In a further assay the target is T2, human PPARγ (Homo sapiens, UniProt P37231).
T2 construct: expressed in transfected cells; host or cells: RK13 or COS-7
T2 sequence (P37231 238-503 limits assumed): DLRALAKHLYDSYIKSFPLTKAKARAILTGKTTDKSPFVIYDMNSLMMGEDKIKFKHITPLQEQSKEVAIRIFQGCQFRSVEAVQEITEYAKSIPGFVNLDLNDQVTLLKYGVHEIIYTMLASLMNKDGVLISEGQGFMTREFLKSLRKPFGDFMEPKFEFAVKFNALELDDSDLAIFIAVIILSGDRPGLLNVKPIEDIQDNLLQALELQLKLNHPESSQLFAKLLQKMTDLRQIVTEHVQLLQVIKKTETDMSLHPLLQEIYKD
Kind of assay: PPARγ/Gal4 transactivation system. Conditions: PPAR/Gal4 transactivation system. Format: cell-based. Here is the method: as §1, §2, §3, §4, §5, §6

The next assay addresses T3, human PPARδ (Homo sapiens, UniProt Q03181).
T3 construct: expressed in transfected cells; host or cells: RK13 or COS-7
T3 sequence (Q03181 211-439 limits assumed): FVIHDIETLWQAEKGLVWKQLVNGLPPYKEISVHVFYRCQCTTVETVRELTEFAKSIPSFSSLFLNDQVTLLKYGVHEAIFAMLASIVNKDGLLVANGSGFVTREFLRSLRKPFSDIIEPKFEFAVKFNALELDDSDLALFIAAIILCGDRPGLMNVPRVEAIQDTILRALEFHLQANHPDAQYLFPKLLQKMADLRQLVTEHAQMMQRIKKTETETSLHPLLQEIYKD
In words: PPARδ/Gal4 transactivation system. Format: cell-based. As to conditions: PPAR/Gal4 transactivation system. The method, then:
as §1, §2, §3, §4, §5
Transfection of COS7: Cells in suspension are transfected, in the presence of 10% (V/V) fetal calf serum, with 150 ng of DNA per well with a pGal4-PPAR/Gal4(RE)_TkpGL3 ratio of 1/10. […] At the end of the activation period, cells are lysed and luciferase activity is determined, using the Steady Glow Luciferase Kit (Promega), according to the supplier's instructions.

Assay [1] deals with hApoE2 Knock-in transgenic mice. Kind of assay: Effects on triglycerides and cholesterol metabolism in vivo. More on the design: species or system mouse. Here is the method:
Treatment of animals: hApoE2 knock-in transgenic mice were kept on a 12-hour light/dark cycle at a constant temperature of 20±3° C. After a 1 week acclimation, mice were separated in groups of 6 animals selected such that the distribution of their body weight and plasmatic lipid levels determined before the experiment were uniform. The test compounds were suspended in carboxymethylcellulose and administered by intragastric gavage at the indicated doses, once a day for 7 or 8 days. Animals had access to food and water ad libitum. At the end of the experiment the animals were weighed and sacrificed under anesthesia. Blood was collected on EDTA. Plasma was prepared by centrifugation at 3000 rpm for 20 minutes. Organs were harvested, frozen in liquid nitrogen and stored at −80° C. for subsequent analysis.
Measurement of serum lipids: Serum lipid concentrations (total cholesterol and triglycerides) were determined by a colorimetric assay (Boehringer, Mannheim, Germany) according to the supplier's instructions.

The test system of assay [2] is C57BLKS-m Lepr^db transgenic mice. In words: Antidiabetic effect on insulin and glucose. Format: in vivo, mouse. Conditions: 0.1 to 30 mg/Kg/day for 21 days. Here is the method:
Genetically modified C57BLKS-m Lepr^db mice were used to asses antidiabetic effect of the inventive compounds. Mice were randomized according to their plasma lipid, glucose and insulin contents. Treatments were administered once daily by gavage (10 ml/kg) for the duration of the treatment. For oral administrations, the drugs were suspended in CMC 1% or CMC 1%+Tween 80 0.1%. The plasma glucose was measured using a kit reagent from Biomerieux (France). The plasma insulin was measured using a solid phase two-site enzyme immunoassay from Crystal Chem Inc. (USA). The results are exemplified in FIGS. 5-1 to 5-4 which illustrate the activity of inventive compounds 29 and 62 on glucose and insulin.

The subject of assay [3] is Human normal primary fibroblasts. Kind of assay: Antioxidant properties on cell cultures (carboxy-H2DCFDA fluorescence, AAPH stress), fibroblasts. As to conditions: 25 μM for 24 h, AAPH 750 μM. Format: cell-based. The method, then:
(§7) The reduction in the intensity of the emitted fluorescence signal was determined in cells treated with the compounds in the following manner.
(§8) Prior to stress the cells with an oxidative agent such as AAPH (CAS number 2997-92-4), cells are incubated with compounds of interest at 25 μM for 24 h. Then the culture medium is discarded and cells are rinsed two times with PBS. Cells are then incubated 30 min at 37° C. with a cell-permeant indicator for reactive oxygen species that is nonfluorescent until the acetate groups are removed by intracellular esterases and oxidation occurs within the cell 5-(and-6)-carboxy-2′,7′-dichlorodihydrofluorescein diacetate (carboxy-H2DCFDA). The probes are prepared in PBS and incubated at the final concentration of 25 μM. After the incubation with the probe, cells are rinsed and incubated another 30 min with the oxidative solution containing AAPH at 750 μM in culture medium without phenol red and serum.
(§9) The fluorescence is then measured with a fluorimeter with the following wavelength, […].
(§10) Two different cell types have been tested with the inventive compounds. Human normal primary fibroblasts and HaCat cells which are a human keratinocyte cell line.

The subject of the next assay is HaCat cells. In words: Antioxidant properties on cell cultures (carboxy-H2DCFDA fluorescence, AAPH stress), keratinocytes. Format: cell-based, human. Conditions: 25 μM for 24 h, AAPH 750 μM. Here is the method:
as §7, §8, §9, §10

In the next assay the test system is C57Black/6 mice. Kind of assay: Prophylactic neuroprotection, cerebral ischemia-reperfusion model (middle cerebral artery occlusion). Format: in vivo, mouse. Conditions: gavage 200 mg/kg/day for 14 days before occlusion; 60 minutes occlusion, 24 hours reperfusion; untreated 37. Here is the method:
C57 black/6 mice (wild-type) were used for this experiment. Animals were maintained on a 12 hour light-dark cycle at a temperature of 20° C.±3° C. Water and food were available ad libitum. Food intake and weight gain were recorded all along the experiment. The inventive compounds (200 mg/kg/day) or the vehicle (0.5% carboxycellulose (CMC)) were administered to the animals by gavage, for 14 days before ischemia induction in the middle cerebral artery.
Animals were anesthetized by intraperitoneal injection of 300 mg/kg chloral hydrate. A rectal probe was inserted and body temperature was maintained at 37° C.±0.5° C. Blood pressure was monitored throughout the experiment. Under a surgical microscope, the right carotid artery was exposed by a median incision in the neck. […]
Twenty-four hours after reperfusion, animals previously treated or not with the compounds were euthanized by pentobarbital overdose. […] Areas were measured and the volume of the infarct and the two hemispheres was calculated by the following formula: (corrected infarct volume=infarct volume−(volume of right hemisphere−volume of left hemisphere)) to compensate for cerebral oedema. […]

In a further assay the test system is C57 black/6 mice. Kind of assay: Acute neuroprotection, cerebral ischemia-reperfusion model (middle cerebral artery occlusion). Format: in vivo, mouse. Conditions: 200 mg/kg/day for 72 hours after occlusion; untreated 41. The method, then:
Animals such as those described previously were used for this experiment. Animals were anesthetized by intraperitoneal injection of 300 mg/kg chloral hydrate. A rectal probe was inserted and body temperature was maintained at 37° C.±0.5° C. Blood pressure was monitored throughout the experiment. Under a surgical microscope, the right carotid artery was exposed by a median incision in the neck. The pterygopalatine artery was ligated at its origin and an arteriotomy was fashioned in the external carotid artery so as to insert a nylon monofilament, which was gently advanced to the common carotid artery and then into the internal carotid artery so as to occlude the origin of the middle cerebral artery. The filament was withdrawn one hour later to allow reperfusion.
Animals first subjected to ischemia-reperfusion were treated with the inventive compounds by the oral or systemic route one or more times after reperfusion.
Seventy-two hours after reperfusion, animals previously treated or not with the compounds were euthanized by pentobarbital overdose. Brains were rapidly frozen and sliced. Sections were stained with cresyl violet. […] Areas were measured and the volume of the infarct and the two hemispheres was calculated by the following formula: (corrected infarct volume=infarct volume−(volume of right hemisphere−volume of left hemisphere)) to compensate for cerebral oedema. […]

The mark [4] stands for this setting: 1, 3, 10 and 30 mg/kg/day for 14 days.

As for `Cc1cc(/C=C/C(=O)c2ccc(OC(F)(F)F)cc2)cc(C)c1OC(C)(C)C(=O)O` [Compound 62], the “concentration at which maximal activity is observed” value on human PPARα was found to be 0.3 µM; on human PPARγ it was 10 µM; on human PPARδ, 3 µM. For the same compound, the plasma cholesterol result in assay [1] (50 mg/kg/day for 7 or 8 days, FIGS. 4-13, 4-15, 4-17, 4-19) is given as “decrease”; in assay [1] (setting [4]), “decrease”. In addition, the plasma triglycerides result in assay [1] (50 mg/kg/day for 7 or 8 days, FIGS. 4-14, 4-16, 4-18, 4-20) is recorded as “decrease”; in assay [1] (setting [4]), “decrease”. Also, the plasma glucose level result in [2] is recorded as “decrease”. The plasma insulin level result in [2] is “decrease”. Further, the “antioxidant properties on cell cultures (in words)” value (in assay [3]; in the assay on HaCat cells) was “antioxidant properties” each time.
Take `CC(C)OC(=O)C(C)(C)Oc1ccc(/C=C/C(=O)c2ccccc2O)cc1` [Compound 42]: the infarct volume in the assay with C57Black/6 mice turned out to be 24 mm^3. The “total corrected infarct volume” value with C57 black/6 mice turned out to be 29 mm^3.
Taken in the same sequence, the figures for `Cc1cc(/C=C/C(=O)c2ccc(Cl)cc2)cc(C)c1OC(C)(C)C(=O)OC(C)C` [Compound 15, 1-[4-chlorophenyl]-3-[3,5-dimethyl-4-isopropyloxycarbonyldimethylmethyloxyphenyl]prop-2-en-1-one] were 32 mm^3 and 29 mm^3.

The record behind these values is patent publication US7566737B2 (Genfit, priority 2002, dated 2009).
